Test results from US11793879B2, “Monolithic composition for dual-rate release with high drug loading” (priority 2016, dated 2023).

Conditions: for immediate release / immediate release (amount): Example 5 monolithic tablet (900 mg acetaminophen + 100 mg caffeine), after 30 minutes in SGF
Description: The dissolution kinetic assay is followed with a Distek™ apparatus according to the paddle method from USP-32, with slight modification. Indeed, the monolithic tablets are placed in 750 mL of simulated gastric fluid (SGF, pH 1.5) during 30 minutes, at 37° C. Thereafter, a volume of 250 mL of sodium tripolyphosphate 0.20 M is added directly in SGF to neutralize the gastric acidity for pH values of about 6.8-7.0 which constituted the pH of simulated intestinal fluid (SIF).
At different intervals of 30 minutes, an aliquot of 1 mL of dissolution fluid is withdrawn from dissolution media, filtered and properly diluted (approximately 1/50). The absorbency is measured with an UV spectrometer (Lambda-40 Spectrometer, Perkin Elmer) at 247 nm.
The Carboxymethyl starch is prepared according to the process of the present invention. […] For acetaminophen, the absorbency of samples is measured with an UV spectrometer at 247 nm. For caffeine, the dosage is carried out by HPLC according to method described by Hassouna et al. (Hassouna, M. E. M, Issa, Y. M. and Zayed, A. G. 2012. J. Appl. Pharm. Sci., 02, 52-59)

Row | immediate release of Acetaminophen (amount) (Example 4 monolithic tablet (1000 mg acetaminophen), after 45 minutes (30 minutes in SGF and 15 minutes in SIF)) | immediate release of Acetaminophen (Example 4 monolithic tablet (1000 mg acetaminophen, carboxymethyl starch excipient), after 45 minutes (30 minutes in SGF pH 1.5 and 15 minutes in SIF), 37° C., FIG. 2) | SMILES | immediate release | immediate release (amount)
1 | – | – | Cn1c(=O)c2c(ncn2C)n(C)c1=O [caffeine, Caffeine] | ~25% | ~25 mg
2 | ~600 mg | ~60% | CC(=O)Nc1ccc(O)cc1 [Acetaminophen] | ~35% | ~350 mg
